From ChEMBL document CHEMBL5727172, “Inhibitors of hepatitis C virus” (2019)
Values joined by “and” are separate entries in the source; they are usually repeats but may differ in a detail not shown here. Equal entries are not always repeated.

Test: The internally quenched fluorogenic depsipeptide substrate Ac-DED(Edans)-EEAbuΨ[COO]ASK(Dabcyl)-NH2 and a synthetic peptide containing the hydrophobic core residues of the NS4A protein cofactor ([…]; NS4A peptide) were obtained from Anaspec, Inc. (San Jose, Calif.). Other chemicals and biochemicals were of reagent grade or better and were purchased from standard suppliers.Reactions were run at room temperature in buffer consisting of 50 mM HEPES, 40% glycerol, 0.05% Triton X-100, 10 mM DTT, and 10% DMSO. The final assay solutions contained 50 pM NS3 genotype 1 b protease or 200 pM genotype 3a protease, 20 μM NS4A peptide, and 4 μM substrate (genotype 1b) or 2 μM substrate (genotype 3a). Inhibitor concentrations varied from 100 nM to 5 pM in 3-fold dilutions, and no-inhibitor controls were included.Compound dilutions were made in DMSO at 20× final concentration. Reaction mixtures were prepared in 96-well assay plates. A solution of enzyme and NS4A peptide in assay buffer (25 μL volume with both reagents at 4× final concentration) was mixed with 45 μL assay buffer and 5 μL of either inhibitor or DMSO, and pre-incubated at room temperature for 1 hour. The reaction was started by addition of 25 μL substrate solution at 4× final concentration. […]

Compound	Ki
C=CCC[C@@H]1C[C@H]1OC(=O)N[C@H](C(=O)N1C[C@H](Oc2nc3cc(OC)ccc3nc2C(F)(F)C=C)[C@@H](C)[C@H]1C(=O)OC(C)(C)C)C(C)(C)C	0.05 nM and 0.19 nM
C=CCCC[C@@H]1CCCC1(OC(=O)N[C@H](C(=O)N1C[C@H](Oc2nc3cc(OC)ccc3nc2Cl)[C@@H](CC)[C@H]1C(=O)OC(C)(C)C)C(C)(C)C)C(F)(F)F (some centres not stated)	0.59 nM and 0.52 nM
